Experiments:
[1] = wn = mass fraction of the nth substance listed; details: 3000 kPa, Liquid; for mass density: Vibrating tube method; for viscosity: Moving piston method
[2] = molar heat capacity at constant pressure; wn = mass fraction of the nth substance listed; details: 3000 kPa, Liquid, Flow calorimetry

N#C[S-].[Na+] [sodium thiocyanate] + N
Details | mass density [kg/m3] | molar heat capacity at constant pressure [J/K/mol] | viscosity [mPa·s]
[1], 269.4 K, w2 = 0.8921 | 707.7 | – | –
[1], 269.8 K, w2 = 0.8921 | – | – | 0.27
[1], 270.4 K, w2 = 0.614 | 896.5 | – | –
[1], 270.4 K, w2 = 0.6824 | 850 | – | –
[1], 270.5 K, w2 = 0.4998 | 965.7 | – | –
[1], 270.5 K, w2 = 0.797 | 772.7 | – | –
[1], 270.6 K, w2 = 0.614 | – | – | 1.41
[1], 270.6 K, w2 = 0.6824 | – | – | 0.82
[1], 270.8 K, w2 = 0.4998 | – | – | 3.47
[1], 270.8 K, w2 = 0.797 | – | – | 0.44
[1], 274.8 K, w2 = 0.614 | 892.6 | – | –
[1], 274.8 K, w2 = 0.797 | 767.4 | – | –
[1], 274.9 K, w2 = 0.614 | – | – | 1.27
[1], 274.9 K, w2 = 0.6824 | 848 | – | 0.77
[1], 275 K, w2 = 0.4998 | 962.2 | – | 3.08
[1], 275 K, w2 = 0.797 | – | – | 0.4
[1], 275.2 K, w2 = 0.8921 | 699.9 | – | –
[1], 275.4 K, w2 = 0.8921 | – | – | 0.25
[1], 279.3 K, w2 = 0.6824 | 844 | – | –
[1], 279.4 K, w2 = 0.614 | 888.8 | – | 1.14
[1], 279.4 K, w2 = 0.6824 | – | – | 0.7
[1], 279.4 K, w2 = 0.797 | 761.7 | – | 0.37
[1], 279.5 K, w2 = 0.4998 | 959.3 | – | 2.75
[1], 283.8 K, w2 = 0.6824 | 839 | – | –
[1], 283.9 K, w2 = 0.797 | 756.4 | – | –
[1], 284 K, w2 = 0.614 | 884.9 | – | 1.06
[1], 284 K, w2 = 0.6824 | – | – | 0.65
[1], 284.1 K, w2 = 0.4998 | 955.9 | – | 2.43
[1], 284.1 K, w2 = 0.797 | – | – | 0.35
[1], 284.2 K, w2 = 0.8921 | 686.6 | – | –
[1], 284.3 K, w2 = 0.8921 | – | – | 0.22
[1], 288.6 K, w2 = 0.614 | 881.6 | – | –
[1], 288.6 K, w2 = 0.6824 | 834 | – | –
[1], 288.6 K, w2 = 0.797 | 750.7 | – | –
[1], 288.7 K, w2 = 0.4998 | 952.2 | – | 2.2
[1], 288.7 K, w2 = 0.6824 | – | – | 0.61
[1], 288.7 K, w2 = 0.797 | – | – | 0.33
[1], 293.3 K, w2 = 0.614 | 878.3 | – | –
[1], 293.3 K, w2 = 0.6824 | 831 | – | 0.57
[1], 293.4 K, w2 = 0.4998 | 948.2 | – | 1.95
[1], 293.4 K, w2 = 0.614 | – | – | 0.89
[1], 293.4 K, w2 = 0.797 | 745.1 | – | 0.31
[1], 293.5 K, w2 = 0.8921 | 674 | – | 0.2
[1], 298 K, w2 = 0.614 | – | – | 0.83
[1], 298 K, w2 = 0.6824 | 828 | – | 0.52
[1], 298.1 K, w2 = 0.4998 | – | – | 1.73
[1], 298.1 K, w2 = 0.614 | 875.8 | – | –
[1], 298.2 K, w2 = 0.4998 | 944.6 | – | –
[1], 302.7 K, w2 = 0.797 | – | – | 0.28
[1], 302.8 K, w2 = 0.614 | 870 | – | 0.76
[1], 302.8 K, w2 = 0.6824 | – | – | 0.49
[1], 302.8 K, w2 = 0.8921 | – | – | 0.18
[1], 302.9 K, w2 = 0.4998 | – | – | 1.57
[1], 302.9 K, w2 = 0.6824 | 821 | – | –
[1], 302.9 K, w2 = 0.797 | 734.7 | – | –
[1], 303 K, w2 = 0.4998 | 941 | – | –
[1], 303 K, w2 = 0.8921 | 660.5 | – | –
[1], 307.5 K, w2 = 0.614 | – | – | 0.71
[1], 307.5 K, w2 = 0.6824 | – | – | 0.46
[1], 307.5 K, w2 = 0.797 | – | – | 0.26
[1], 307.6 K, w2 = 0.4998 | – | – | 1.41
[1], 307.6 K, w2 = 0.614 | 866.2 | – | –
[1], 307.6 K, w2 = 0.6824 | 817 | – | –
[1], 307.6 K, w2 = 0.797 | 729.5 | – | –
[1], 307.7 K, w2 = 0.4998 | 937.1 | – | –
[1], 312.2 K, w2 = 0.6824 | – | – | 0.43
[1], 312.2 K, w2 = 0.797 | – | – | 0.24
[1], 312.2 K, w2 = 0.8921 | – | – | 0.16
[1], 312.3 K, w2 = 0.4998 | – | – | 1.27
[1], 312.3 K, w2 = 0.614 | – | – | 0.66
[1], 312.3 K, w2 = 0.6824 | 811 | – | –
[1], 312.4 K, w2 = 0.4998 | 933.3 | – | –
[1], 312.4 K, w2 = 0.614 | 862.3 | – | –
[1], 312.4 K, w2 = 0.797 | 724.2 | – | –
[1], 312.4 K, w2 = 0.8921 | 648.1 | – | –
[1], 316.8 K, w2 = 0.797 | – | – | 0.23
[1], 317 K, w2 = 0.614 | 857.4 | – | 0.62
[1], 317 K, w2 = 0.6824 | – | – | 0.4
[1], 317.1 K, w2 = 0.4998 | – | – | 1.15
[1], 317.1 K, w2 = 0.797 | 718.9 | – | –
[1], 317.2 K, w2 = 0.4998 | 929.3 | – | –
[1], 317.2 K, w2 = 0.6824 | 807 | – | –
[1], 321.5 K, w2 = 0.797 | – | – | 0.22
[1], 321.6 K, w2 = 0.8921 | – | – | 0.15
[1], 321.7 K, w2 = 0.614 | – | – | 0.57
[1], 321.7 K, w2 = 0.6824 | – | – | 0.38
[1], 321.8 K, w2 = 0.4998 | – | – | 1.06
[1], 321.8 K, w2 = 0.614 | 852.4 | – | –
[1], 321.8 K, w2 = 0.797 | 713.6 | – | –
[1], 321.9 K, w2 = 0.4998 | 925.5 | – | –
[1], 321.9 K, w2 = 0.6824 | 800.5 | – | –
[1], 322 K, w2 = 0.8921 | 635.4 | – | –
[1], 326.4 K, w2 = 0.797 | – | – | 0.21
[1], 326.5 K, w2 = 0.614 | – | – | 0.53
[1], 326.5 K, w2 = 0.6824 | – | – | 0.36
[1], 326.6 K, w2 = 0.4998 | – | – | 1
[1], 326.6 K, w2 = 0.614 | 846.9 | – | –
[1], 326.6 K, w2 = 0.797 | 708.4 | – | –
[1], 326.7 K, w2 = 0.4998 | 921.4 | – | –
[1], 326.7 K, w2 = 0.6824 | 795 | – | –
[1], 331 K, w2 = 0.8921 | – | – | 0.13
[1], 331.1 K, w2 = 0.797 | – | – | 0.2
[1], 331.2 K, w2 = 0.614 | – | – | 0.51
[1], 331.2 K, w2 = 0.6824 | – | – | 0.35
[1], 331.4 K, w2 = 0.4998 | – | – | 0.92
[1], 331.4 K, w2 = 0.614 | 843.1 | – | –
[1], 331.4 K, w2 = 0.6824 | 792 | – | –
[1], 331.4 K, w2 = 0.797 | 701 | – | –
[1], 331.5 K, w2 = 0.4998 | 917.4 | – | –
[1], 335.7 K, w2 = 0.797 | – | – | 0.19
[1], 336 K, w2 = 0.6824 | – | – | 0.33
[1], 336.1 K, w2 = 0.614 | – | – | 0.47
[1], 336.2 K, w2 = 0.614 | 838.1 | – | –
[1], 336.2 K, w2 = 0.797 | 692.7 | – | –
[1], 336.3 K, w2 = 0.4998 | 913.3 | – | 0.87
[1], 336.3 K, w2 = 0.6824 | 783.1 | – | –
[1], 340.6 K, w2 = 0.797 | – | – | 0.18
[1], 340.8 K, w2 = 0.614 | – | – | 0.46
[1], 340.8 K, w2 = 0.6824 | – | – | 0.31
[1], 341 K, w2 = 0.797 | 686.7 | – | –
[1], 341.1 K, w2 = 0.4998 | – | – | 0.82
[1], 341.1 K, w2 = 0.614 | 832.6 | – | –
[1], 341.1 K, w2 = 0.6824 | 775.2 | – | –
[1], 341.2 K, w2 = 0.4998 | 909.2 | – | –
[1], 345.6 K, w2 = 0.614 | – | – | 0.43
[1], 345.9 K, w2 = 0.4998 | – | – | 0.77
[1], 346 K, w2 = 0.4998 | 905.1 | – | –
[1], 346 K, w2 = 0.614 | 826.5 | – | –
[1], 350.2 K, w2 = 0.614 | – | – | 0.4
[1], 350.4 K, w2 = 0.4998 | – | – | 0.73
[1], 350.9 K, w2 = 0.4998 | 900.9 | – | –
[1], 359.7 K, w2 = 0.4998 | – | – | 0.65
[1], 369.5 K, w2 = 0.4998 | – | – | 0.58
[2], 304.17 K, w2 = 0.4992 | – | 63.48 | –
[2], 304.17 K, w2 = 0.5988 | – | 72.55 | –
[2], 304.17 K, w2 = 0.7013 | – | 76.74 | –
[2], 304.17 K, w2 = 0.9 | – | 81.53 | –
[2], 314.14 K, w2 = 0.4992 | – | 64.61 | –
[2], 314.14 K, w2 = 0.5988 | – | 72.3 | –
[2], 314.14 K, w2 = 0.7013 | – | 77.73 | –
[2], 314.14 K, w2 = 0.7961 | – | 81.14 | –
[2], 314.14 K, w2 = 0.9 | – | 81.93 | –
[2], 324.11 K, w2 = 0.4992 | – | 64.64 | –
[2], 324.11 K, w2 = 0.5988 | – | 72.13 | –
[2], 324.11 K, w2 = 0.7013 | – | 77.86 | –
[2], 324.11 K, w2 = 0.7961 | – | 82.16 | –
[2], 324.11 K, w2 = 0.9 | – | 83.77 | –
[2], 334.09 K, w2 = 0.4992 | – | 65.26 | –
[2], 334.09 K, w2 = 0.5988 | – | 72.48 | –
[2], 334.09 K, w2 = 0.7013 | – | 78.17 | –
[2], 334.09 K, w2 = 0.7961 | – | 82.8 | –
[2], 334.09 K, w2 = 0.9 | – | 85.93 | –
[2], 344.07 K, w2 = 0.4992 | – | 65.94 | –
[2], 344.07 K, w2 = 0.5988 | – | 73.3 | –
[2], 344.07 K, w2 = 0.7013 | – | 79.2 | –
[2], 354.06 K, w2 = 0.4992 | – | 67.29 | –
[2], 354.06 K, w2 = 0.5988 | – | 74.12 | –
[2], 364.15 K, w2 = 0.4992 | – | 70.3 | –
